Converted amounts (≈) assume the structure as drawn. Like-named read-outs stand apart in the source and are kept apart here.
Columns and labels:
PPARα = target: T1, PPARα (Homo sapiens, UniProt Q07869); assay type: cell-based; conditions: for PPARα activation @10 μM: at 10 μM, compared to GW7647 1 μM
T1 construct: expressed in transfected cells; host or cells: COS-7
Procedure: (§1) COS-7 cells (PPAR) were grown in DMEM high glucose, supplemented with 10% fetal calf serum (FCS), 1% sodium pyruvate (SP) and 1% penicillin/streptomycin (PS) at 37° C. and 5% CO2. Used plasmids for PPAR transactivation assay are shown under supporting informations.
(§2) The day before transfection, COS-7 cells were seeded in 96-well plates with a density of 30,000 cells per well. Transient transfection was carried out using Lipofectamine LTX reagent (Invitrogen, Carlsbad, Calif., USA) according to the manufacturer's protocol with pFR-Luc (Stratagene), pRL-SV40 (Promega) and the Ga14-fusion receptor plasmids (pFA-CMV-hPPAR-LBD) of the respective PPAR subtype. 5 h after transfection, medium was changed to DMEM without phenol red and 10% FCS, supplemented with 1% SP, 1% PS and 1% L-glutamine, now additionally containing 0.1% DMSO and the respective test compound or 0.1% DMSO alone as untreated control. Each concentration was tested in triplicate wells and each experiment was repeated independently at least three times. Following overnight incubation with the test compounds, cells were assayed for luciferase activity using Dual-Glo™ Luciferase Assay System (Promega) according to the manufacturer's protocol. Luminescence was measured with an Infinite m200 luminometer (Tecan Deutschland GmbH). Each concentration of the compounds was tested in triplicate wells. Normalization for transfection efficacy and cell growth was done by division of the firefly luciferase data by renilla luciferase data resulting in relative light units. Activation factors were obtained by dividing by DMSO control. […] All compounds were evaluated by comparison of the achieved maximum effect to that of the reference compound (pioglitazone for PPARγ, GW7647 for PPARa, and L165041 for PPARS each with 1 μM). Data are expressed as mean±SE; n≥3.
(§3) The Gal4-fusion receptor plasmids pFA-CMV-PPARa-LBD, pFA-CMV-PPARS-LBD and pFA-CMV-PPARγ-LBD containing the hinge region and ligand binding domain (LBD) for each of the PPAR subtypes, respectively, were constructed by integrating cDNA fragments obtained from PCR amplification of human monocytes into the SmaI/XbaI cleavage site of the pFA-CMV vector (Stratagene, La Jolla, Calif., USA) and have already been published. […] Frame and sequence of the fusion receptors were verified by sequencing. pFR-Luc (Stratagene) was used as reporter plasmid and pRL-SV40 (Promega) for normalization of transfection efficacy and cell growth.

PPARδ = target: T2, PPARδ (Homo sapiens, UniProt Q03181); assay: PPAR transactivation assay in COS-7 cells (Gal4-hPPAR-LBD, luciferase); assay type: cell-based
T2 construct: expressed in transfected cells; host or cells: COS-7
Procedure: as §1, §2, §3

recombinant human sEH = target: T3, recombinant human sEH (Homo sapiens, UniProt P34913); assay: biochemical
T3 sequence (P34913 1-555): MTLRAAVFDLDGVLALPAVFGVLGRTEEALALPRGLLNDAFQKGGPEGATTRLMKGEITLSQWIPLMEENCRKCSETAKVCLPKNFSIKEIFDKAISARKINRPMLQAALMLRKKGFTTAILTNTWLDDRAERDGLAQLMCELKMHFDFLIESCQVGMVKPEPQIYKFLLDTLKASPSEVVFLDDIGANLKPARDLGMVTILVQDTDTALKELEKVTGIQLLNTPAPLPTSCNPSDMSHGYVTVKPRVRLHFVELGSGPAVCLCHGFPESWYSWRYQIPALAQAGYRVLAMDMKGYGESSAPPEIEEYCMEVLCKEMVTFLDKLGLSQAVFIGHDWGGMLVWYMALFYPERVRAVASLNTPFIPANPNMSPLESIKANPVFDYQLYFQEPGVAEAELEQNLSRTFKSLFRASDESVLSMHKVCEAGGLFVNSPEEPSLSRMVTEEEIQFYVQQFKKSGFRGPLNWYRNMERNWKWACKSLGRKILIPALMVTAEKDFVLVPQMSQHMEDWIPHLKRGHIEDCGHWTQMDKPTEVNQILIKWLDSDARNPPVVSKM

[1] = Water solubility approximation; assay type: physicochemical; conditions: PBS with 0.01% Polysorbate 20, aqueous with cosolvent or surfactant or cyclodextrin, kinetic from dmso stock; PBS pH 7.4, 0.01% Polysorbate 20, 1% DMSO; precipitation at 650 nm; read-out: w.s. (water solubility)
Procedure: PBS at pH 7.4 with 0.01% Polysorbate 20 (Tween) was combined with 1% of a DMSO solution of the inquired compound in a 96-well transparent flat bottom microtiter plate. Precipitation of the compound was measured at 650 nm with a Tecan Infinite 200 (Tecan Group Ltd, Mannedorf, Switzerland).

[2] = at 10 μM, read-out: sEH inhibition @10 μM (converted)

T2 sequence (Q03181 211-439): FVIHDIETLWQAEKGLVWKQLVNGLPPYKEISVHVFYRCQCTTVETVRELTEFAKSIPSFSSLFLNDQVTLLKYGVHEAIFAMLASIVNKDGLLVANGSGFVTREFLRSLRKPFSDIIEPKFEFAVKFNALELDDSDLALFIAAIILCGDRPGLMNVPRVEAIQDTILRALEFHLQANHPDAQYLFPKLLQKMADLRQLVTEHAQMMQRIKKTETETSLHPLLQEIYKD
T1 sequence (Q07869 239-466): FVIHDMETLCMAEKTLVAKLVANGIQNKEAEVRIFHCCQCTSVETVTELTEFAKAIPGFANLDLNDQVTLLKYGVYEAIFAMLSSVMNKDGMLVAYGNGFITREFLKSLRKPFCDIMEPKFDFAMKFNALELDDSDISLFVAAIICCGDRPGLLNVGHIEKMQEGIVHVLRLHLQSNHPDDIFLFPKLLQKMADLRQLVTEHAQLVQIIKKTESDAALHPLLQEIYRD

Row | SMILES | EC50 PPARα (PPARα; i.a. = inactive) | EC50 PPARδ (PPARδ; i.a. = inactive) | IC50 (recombinant human sEH; read-out: IC50 sEH (converted)) | solubility [1] | other results
1 | CCOC(=O)/C(=C/c1ccc(C(=O)NCc2ccccc2C(F)(F)F)cc1)CC [Compound 1a] | i.a. | i.a. | 63 ± 3 nM | – | –
2 | CC/C(=C\c1ccc(C(=O)NCc2ccccc2C(F)(F)F)cc1)C(=O)O [Compound 1d, (E)-4-[N-((2-Trifluoromethyl)benzyl)benzamide]-alpha-ethylcinnamic acid] | i.a. | i.a. | 120 ± 10 nM | – | –
3 | CCC(Cc1ccc(C(=O)NCc2ccccc2)cc1)C(=O)O (stereo not shown) [Compound 2c, 2-Ethyl 3-[4-(N-benzylbenzamide)]propionic acid] | – | – | – | – | EC50 PPARα (PPARα): n.t. i.a. i.a. n.t.; EC50 PPARδ (PPARδ): n.t. i.a. i.a. n.t.; inhibition at 10 µM (recombinant human sEH; read-out: sEH inhibition @10 μM): 4%
4 | CCC(Cc1ccc(C(=O)NCc2ccccc2C)cc1)C(=O)O (stereo not shown) [Compound 3c, 2-Ethyl 3-[4-(N-((2-methyl)benzyl)benzamide)]propionic acid] | i.a. | n.t. i.a. i.a. n.t. | – | – | inhibition at 10 µM (recombinant human sEH; [2]): 25%
5 | CCC(Cc1ccc(C(=O)NCc2ccccc2Cl)cc1)C(=O)O (stereo not shown) [Compound 4c, 2-Ethyl 3-[4-(N-((2-chloro)benzyl)benzamide)]propionic acid] | n.t. i.a. i.a. n.t. | n.t. i.a. i.a. n.t. | – | – | inhibition at 10 µM (recombinant human sEH; [2]): 20%
6 | CCOC(=O)/C(=C/c1ccc(C(=O)NCc2ccccc2OC(F)(F)F)cc1)CC [Compound 6a, Ethyl (E)-4-[N-((2-trifluoromethoxy)benzyl)benzamide]-alpha-ethylcinnamate] | – | – | 60 ± 13 nM | 10 µM (≈ 4.21 µg/mL) | –
7 | CCC(Cc1ccc(C(=O)NCc2ccc(F)cc2)cc1)C(=O)O (stereo not shown) [Compound 7c, 2-Ethyl 3-[4-(N-((4-fluoro)benzyl)benzamide)]propionic acid] | n.t. i.a. i.a. n.t. | n.t. i.a. i.a. n.t. | – | – | inhibition at 10 µM (recombinant human sEH; [2]): 28%
8 | CC/C(=C\c1ccc(C(=O)NCc2ccc(C(F)(F)F)cc2)cc1)C(=O)O [Compound 8d, (E)-4-[N-((4-Trifluoromethyl)benzyl)benzamide]-alpha-ethylcinnamic acid] | – | – | 2800 nM | 500 µM (≈ 189 µg/mL) | –
9 | CCOC(=O)/C(=C/c1ccc(C(=O)NCc2ccc(OC)cc2)cc1)CC [Compound 10a, Ethyl (E)-4-[N-((4-methoxy)benzyl)benzamide]-alpha-ethylcinnamate] | – | – | – | 10 µM (≈ 3.67 µg/mL) | IC50 (recombinant human sEH): 550 nM
10 | CCOC(=O)/C(=C/c1ccc(C(=O)NCc2ccc(Cl)cc2)cc1)CC [Compound 11a, Ethyl (E)-4-[N-((4-chloro)benzyl)benzamide]-alpha-ethylcinnamate] | – | – | 3000 ± 1400 nM | 10 µM (≈ 3.72 µg/mL) | –
11 | CC/C(=C\c1ccc(C(=O)NCc2ccc(Cl)cc2)cc1)C(=O)O [Compound 11d, (E)-4-[N-((4-Chloro)benzyl)benzamide]-alpha-ethylcinnamic acid] | – | – | 5000 nM | 100 µM (≈ 34.4 µg/mL) | –
12 | CCOC(=O)C(CC)Cc1ccc(C(=O)NCc2ccc(F)cc2C(F)(F)F)cc1 (stereo not shown) [Compound 13b, Ethyl 2-ethyl 3-[4-(N-(4-fluoro(2-trifluoromethyl)benzyl)benzamide)]propanoate] | n.t. i.a. i.a. n.t. | n.t. i.a. i.a. n.t. | – | – | –
13 | CCC(Cc1ccc(C(=O)NCc2ccc(F)cc2C(F)(F)F)cc1)C(=O)O (stereo not shown) [Compound 13c, 2-Ethyl 3-[4-(N-(4-fluoro(2-trifluoromethyl)benzyl)benzamide)]propionic acid] | n.t. i.a. i.a. n.t. | n.t. i.a. i.a. n.t. | – | – | –
14 | CCOC(=O)C(CC)Cc1ccc(C(=O)NCc2ccc(OC)cc2C(F)(F)F)cc1 (stereo not shown) [Compound 14b, Ethyl 2-ethyl 3-[4-(N-(4-methoxy(2-trifluoromethyl)benzyl)benzamide)]propanoate] | – | n.t. i.a. i.a. n.t. | – | – | PPARα activation @10 μM (PPARα): 22%
15 | CCOC(=O)C(CC)Cc1cccc(C(=O)NCc2ccccc2C(F)(F)F)c1 (stereo not shown) [Compound 15b, Ethyl 2-ethyl 3-[3-(N-((2-trifluoromethyl)benzyl)benzamide)]propanoate] | i.a. | i.a. | 27 ± 2 nM | – | –
16 | CCC(Cc1cccc(C(=O)NCc2ccccc2C(F)(F)F)c1)C(=O)O (stereo not shown) [Compound 15c, 2-Ethyl 3-[3-(N-((2-trifluoromethyl)benzyl)benzamide)]propionic acid] | – | i.a. | 900 ± 80 nM | – | PPARα activation @10 μM (PPARα): @10 μM (34%)
17 | CCOC(=O)/C(C)=C/c1ccc(C(=O)NCc2ccccc2C(F)(F)F)cc1 [Compound 17a, Ethyl (E)-4-[N-((2-trifluoromethyl)benzyl)benzamide]-alpha-methylcinnamate] | – | – | 100 ± 30 nM | 10 µM (≈ 3.91 µg/mL) | –
18 | C/C(=C\c1ccc(C(=O)NCc2ccccc2C(F)(F)F)cc1)C(=O)O [Compound 17d, (E)-4-[N-((2-Trifluoromethyl)benzyl)benzamide]-alpha-methylcinnamic acid] | – | – | 4900 ± 60 nM | 500 µM (≈ 182 µg/mL) | –
19 | CCC/C(=C\c1ccc(C(=O)NCc2ccccc2C(F)(F)F)cc1)C(=O)OCC [Compound 18a, Ethyl (E)-4-[N-((2-trifluoromethyl)benzyl)benzamide]-alpha-propylcinnamate] | – | – | 160 ± 60 nM | 10 µM (≈ 4.19 µg/mL) | –
20 | CCC/C(=C\c1ccc(C(=O)NCc2ccccc2C(F)(F)F)cc1)C(=O)O [Compound 18d, (E)-4-[N-((2-Trifluoromethyl)benzyl)benzamide]-alpha-propylcinnamic acid] | – | – | 700 ± 60 nM | 5 µM (≈ 1.96 µg/mL) | –
21 | CCOC(=O)/C(=C/c1ccc(C(=O)NCc2ccccc2C(F)(F)F)cc1)c1ccccc1 [Compound 19a, Ethyl (E)-4-[N-((2-trifluoromethyl)benzyl)benzamide]-alpha-phenylcinnamate] | – | – | 160 ± 30 nM | 1 µM (≈ 0.453 µg/mL) | –
22 | O=C(O)/C(=C/c1ccc(C(=O)NCc2ccccc2C(F)(F)F)cc1)c1ccccc1 [Compound 19d, (E)-4-[N-((2-Trifluoromethyl)benzyl)benzamide]-alpha-phenylcinnamic acid] | – | – | 800 ± 10 nM | 50 µM (≈ 21.3 µg/mL) | –
23 | O=C(NCc1ccccc1C(F)(F)F)c1ccc(C2CC2C(=O)O)cc1 (stereo not shown) [Compound 22, 2-[4-(N-((2-trifluoromethyl)benzyl)benzamide)]cyclopropan carboxylic acid] | i.a. | i.a. | 5500 ± 200 nM | – | –
